Laboratory results: paper PMC7427786, “An essential role of acetyl coenzyme A in the catalytic cycle of insect arylalkylamine N-acetyltransferase” (Communications Biology, 2020)
Values belong to the molecule of their own block, whether it stands above or below them.

Key:
Assay type in all cases: binding
[1] = target: T1, Dat (dopamine N-acetyltransferase; Dat21-230) (Drosophila melanogaster, UniProt Q94521); test: X-ray crystallography (cocrystallization of Dat, Ac-CoA and PEA); NMR HSQC; conditions: ternary complex with CoA; product formed in the crystal
T1 construct: gene speck; truncated Dat residues 21-230 of 240; pGEX-6p3, GST tag cut by PreScission protease; E. coli BL21 (DE3)

[2] = target: T1, Dat (dopamine N-acetyltransferase; Dat21-230); test: X-ray crystallography, cocrystal; conditions: substrate pocket
[3] = target: T1, Dat (dopamine N-acetyltransferase; Dat21-230); test: isothermal titration calorimetry
From the text: isothermal titration calorimetry on Dat (dopamine N-acetyltransferase; Dat21-230)

T1 sequence (Q94521 56-265): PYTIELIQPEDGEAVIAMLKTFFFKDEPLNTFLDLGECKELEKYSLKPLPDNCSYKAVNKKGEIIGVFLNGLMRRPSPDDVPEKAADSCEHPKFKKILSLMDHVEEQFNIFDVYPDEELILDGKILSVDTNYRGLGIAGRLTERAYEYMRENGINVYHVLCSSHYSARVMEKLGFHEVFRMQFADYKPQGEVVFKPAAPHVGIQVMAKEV

SMILES: CC(=O)NCCc1ccccc1 [Ac-PEA]
X-ray crystallography (cocrystallization of Dat, Ac-CoA and PEA); NMR HSQC [1]: crystals of Dat with two products, CoA and Ac-PEA (PDB code: 5GI7)

SMILES: OCCc1c[nH]c2ccccc12 [tryptophol]
X-ray crystallography, cocrystal ([2]; ternary complex with Ac-CoA, dead-end analog of tryptamine, 1.28 Å): Dat/Ac-CoA/tryptophol (mimicking the enzyme-substrates complex)

Kd [3]: 153 ± 26.5 µM
SMILES: CC(C)(COP(=O)(O)OP(=O)(O)OC[C@H]1O[C@@H](n2cnc3c(N)ncnc32)[C@H](O)[C@@H]1OP(=O)(O)O)[C@@H](O)C(=O)NCCC(=O)NCCS [CoA]

Kd [3]: 5.51 ± 1.92 µM
SMILES: CC(=O)SCCNC(=O)CCNC(=O)[C@H](O)C(C)(C)COP(=O)(O)OP(=O)(O)OC[C@H]1O[C@@H](n2cnc3c(N)ncnc32)[C@H](O)[C@@H]1OP(=O)(O)O [Ac-CoA]

SMILES: CC(=O)NCCc1c[nH]c2ccccc12 [Ac-TRYP]
X-ray crystallography, cocrystal ([2]; ternary complex with CoA, 1.36 Å): Dat/CoA/Ac-TRYP (representing the enzyme-products complex)
